Assay results taken from ChEMBL document CHEMBL5331107 (J Med Chem, 2023).

How the values were obtained:
[1] = tested on: Human immunodeficiency virus 1; experiment: Antiviral activity against NNRTI-resistant HIV-1 harboring K103N mutant infected in human MT4 cells assessed as protection against virus-induced cytopathic effect incubated for 5 days by MTT assay; type: functional, organism-based; settings: Human immunodeficiency virus 1, MT4, 120 h
[2] = tested on: Human immunodeficiency virus 1; experiment: Antiviral activity against NNRTI-resistant HIV-1 harboring E138K mutant infected in human MT4 cells assessed as protection against virus-induced cytopathic effect incubated for 5 days by MTT assay; type: functional, organism-based; settings: Human immunodeficiency virus 1, MT4, 120 h
[3] = Cytotoxicity against human MT4 cells assessed as reduction in cell viability incubated for 5 days by MTT assay; type: toxicity, cell-based; settings: time 5 day
[4] = tested on: Human immunodeficiency virus 1; experiment: Antiviral activity against NNRTI-resistant HIV-1 harboring L100I mutant infected in human MT4 cells assessed as protection against virus-induced cytopathic effect incubated for 5 days by MTT assay; type: functional, organism-based; settings: Human immunodeficiency virus 1, MT4, 120 h
[5] = tested on: Human immunodeficiency virus 1; type: functional, organism-based; settings: Human immunodeficiency virus 1, MT4, 120 h
[6] = tested on: Human immunodeficiency virus 1; type: functional, organism-based; settings: Human immunodeficiency virus 1, MT4, 120 h; remark: listed apart in the source
[7] = tested on: Human immunodeficiency virus 1; experiment: Antiviral activity against NNRTI-resistant HIV-1 harboring F227L and V106A double mutant infected in human MT4 cells assessed as protection against virus-induced cytopathic effect incubated for 5 days by MTT assay; type: functional, organism-based; settings: Human immunodeficiency virus 1, MT4, 120 h
[8] = tested on: Human immunodeficiency virus 1; type: functional, organism-based; settings: Human immunodeficiency virus 1, MT4, 120 h; remark: listed apart in the source
[9] = target: Human immunodeficiency virus type 1 reverse transcriptase (Human immunodeficiency virus 1, UniProt Q72547); experiment: Inhibition of HIV-1 reverse transcriptase assessed as assessed as reduction of biotin-dUTP incorporation into […] incubated for 1 hrs by ELISA analysis
[10] = in vitro; settings: human, MT4 cells
Description: Selectivity index, ratio of CC50 for cytotoxicity against human MT4 cells to EC50 for antiviral activity against wildtype HIV-1 IIIB infected in human MT4 cells

[11] = in vitro; settings: human, MT4 cells; remark: listed apart in the source
Description: Selectivity index, ratio of CC50 for cytotoxicity against human MT4 cells to EC50 for antiviral activity against NNRTI-resistant HIV-1 harboring K103N mutant infected in human MT4 cells

[12] = in vitro; settings: human, MT4 cells; remark: listed apart in the source
Description: Selectivity index, ratio of CC50 for cytotoxicity against human MT4 cells to EC50 for antiviral activity against NNRTI-resistant HIV-1 harboring E138K mutant infected in human MT4 cells

[13] = in vitro; settings: human, MT4 cells; remark: listed apart in the source
Description: Selectivity index, ratio of CC50 for cytotoxicity against human MT4 cells to EC50 for antiviral activity against NNRTI-resistant HIV-1 harboring L100I mutant infected in human MT4 cells

[14] = in vitro; settings: human, MT4 cells; remark: listed apart in the source
Description: Selectivity index, ratio of CC50 for cytotoxicity against human MT4 cells to EC50 for antiviral activity against NNRTI-resistant HIV-1 harboring Y181C mutant infected in human MT4 cells

[15] = in vitro; settings: human, MT4 cells; remark: listed apart in the source
Description: Selectivity index, ratio of CC50 for cytotoxicity against human MT4 cells to EC50 for antiviral activity against NNRTI-resistant HIV-1 harboring Y188L mutant infected in human MT4 cells

[16] = in vitro; settings: human, MT4 cells; remark: listed apart in the source
Description: Selectivity index, ratio of CC50 for cytotoxicity against human MT4 cells to EC50 for antiviral activity against NNRTI-resistant HIV-1 harboring F227L and V106A mutant infected in human MT4 cells

[17] = in vitro; settings: human, MT4 cells; remark: listed apart in the source
Description: Selectivity index, ratio of CC50 for cytotoxicity against human MT4 cells to EC50 for antiviral activity against NNRTI-resistant HIV-1 harboring K103N and Y181C mutant infected in human MT4 cells

[18] = tested on: Human immunodeficiency virus 1; experiment: microbe, parasite or virus in culture; settings: Human immunodeficiency virus 1, IIIB, MT4, 120 h
Description: Antiviral activity against wild type HIV-1 IIIB infected in human MT4 cells assessed as protection against virus-induced cytopathic effect incubated for 5 days by MTT assay

[19] = Water solubility of the compound in phosphate buffer at pH 7.4; settings: buffer
[20] = Metabolic stability in human liver microsomes assessed as half-life incubated for 60 mins in the presence of NADPH by LC-MS/MS analysis; type: ADME, Microsome; settings: microsomes, 1 h
[21] = Metabolic stability in human liver microsomes assessed as intrinsic clearance incubated for 60 mins in the presence of NADPH by LC-MS/MS analysis; settings: microsomes
[22] = Metabolic stability in human liver assessed as intrinsic clearance incubated for 60 mins in the presence of NADPH by LC-MS/MS analysis; type: ADME, tissue-based; settings: read-out: CLH
[23] = Metabolic stability in human liver microsomes assessed as compound remaining measured after 60 mins in the presence of NADPH by LC-MS/MS analysis; type: ADME, Microsome; settings: microsomes, 1 h

| Compound | EC50 [1] [nM] | EC50 [2] [nM] | CC50 at 120 h [3] [µM] | EC50 [4] [nM] | EC50 [5] [nM] | EC50 [6] [nM] | EC50 [7] [nM] | EC50 [8] [nM] | IC50 [9] [nM] | selectivity ratio [10] | selectivity ratio [11] | selectivity ratio [12] | EC50 [18] [nM] | also measured |
| --- | --- | --- | --- | --- | --- | --- | --- | --- | --- | --- | --- | --- | --- | --- |
| Cc1cc(C#N)cc(C)c1Oc1nc(Nc2ccc(C#N)cc2)nc2c1CN(C(=O)c1ccc([N+](=O)[O-])cc1)CC2 | 9.81 | 32.9 | > 229 | 120 | 48.3 | 44.6 | 270 | 156 | 146 | > 30000 | > 23400 | > 6960 | 7.65 | selectivity ratio [13]: > 1910; selectivity ratio [14]: > 4740; selectivity ratio [15]: > 5130; selectivity ratio [16]: > 848; selectivity ratio [17]: > 1470 |
| Cc1cc(C#N)cc(C)c1Oc1nc(Nc2ccc(C#N)cc2)nc2c1CN(Cc1ccc(S(N)(=O)=O)cc1)CC2 | 7.56 | 39.7 | > 221 | 72.6 | 34.4 | 31.8 | 135 | 89.9 | 126 | > 33400 | > 29200 | > 5570 | 6.62 | selectivity ratio [13]: > 3040; selectivity ratio [14]: > 6430; selectivity ratio [15]: > 6940; selectivity ratio [16]: > 1640; selectivity ratio [17]: > 2460 |
| Cc1cc(C#N)cc(C)c1Oc1nc(Nc2ccc(C#N)cc2)nc2c1CN(Cc1ccccc1)CC2 | 27.6 | 103 | 52.1 |  |  |  |  |  | 225 | 2740 | 1890 | 507 | 19.1 |  |
| Cc1cc(C#N)cc(C)c1Oc1nc(Nc2ccc(C#N)cc2)nc2c1CN(C(=O)c1ccc(F)cc1)CC2 | 8.97 | 24.1 | 6.51 |  |  |  |  |  | 154 | 736 | 726 | 270 | 8.84 |  |
| COc1cccc(C(=O)N2CCc3nc(Nc4ccc(C#N)cc4)nc(Oc4c(C)cc(C#N)cc4C)c3C2)c1 | 8.01 | 33.3 | 4.78 |  |  |  |  |  | 180 | 653 | 597 | 144 | 7.32 |  |
| Cc1cc(C#N)cc(C)c1Oc1nc(Nc2ccc(C#N)cc2)nc2c1CNCC2 | 3.09 | 5.61 | 19.7 | 33.2 | 45.4 | 19.5 | 136 | 383 | 57 | 10400 | 6380 | 3520 | 1.89 | selectivity ratio [13]: 595; selectivity ratio [14]: 435; selectivity ratio [15]: 1010; selectivity ratio [16]: 145; selectivity ratio [17]: 51 |
| Cc1ccnc2c1NC(=O)c1cccnc1N2C1CC1 [NEVIRAPINE] | 7790 | 205 | > 15 | 2290 | 8950 | > 15000 | > 15000 | > 15000 |  |  |  |  | 155 |  |
| Cc1cc(C#N)cc(C)c1Oc1nc(Nc2ccc(C#N)cc2)nc2c1CN(C(=O)c1cccc(F)c1)CC2 | 9.5 | 33 | 5.02 |  |  |  |  |  | 207 | 551 | 529 | 152 | 9.12 |  |
| Cc1cc(C#N)cc(C)c1Oc1nc(Nc2ccc(C#N)cc2)nc2c1CN(C(=O)c1cccc([N+](=O)[O-])c1)CC2 | 7.15 | 43 | > 229 |  |  |  |  |  | 169 | > 28600 | > 32100 | > 5330 | 8 |  |
| Cc1cc(C#N)cc(C)c1Oc1nc(Nc2ccc(C#N)cc2)nc2c1CN(C(=O)c1cccc(C(F)(F)F)c1)CC2 | 36.1 | 152 | > 220 |  |  |  |  |  | 313 | > 7930 | > 6090 | > 1450 | 27.7 |  |
| C=CC(=O)N1CCc2nc(Nc3ccc(C#N)cc3)nc(Oc3c(C)cc(C#N)cc3C)c2C1 | 11.7 | 45.3 | 11.1 | 44.2 | 47.4 | 50.7 | 134 | 138 | 71 | 1370 | 956 | 246 | 8.12 | selectivity ratio [13]: 252; selectivity ratio [14]: 235; selectivity ratio [15]: 220; selectivity ratio [16]: 83; selectivity ratio [17]: 81 |
| Cc1cc(C#N)cc(C)c1Oc1nc(Nc2ccc(C#N)cc2)nc2c1CN(S(=O)(=O)N(C)C)CC2 | 8.19 | 30.5 | 62.8 |  |  |  |  |  | 84 | 7910 | 7670 | 2060 | 7.94 |  |
| Cc1cc(C#N)cc(C)c1Oc1nc(Nc2ccc(C#N)cc2)nc2c1CN(Cc1ccc(B(O)O)cc1)CC2 | 15.5 | 55.7 | 11.8 |  |  |  |  |  | 180 | 787 | 758 | 211 | 14.9 |  |
| O=C1Nc2ccc(Cl)cc2[C@@](C#CC2CC2)(C(F)(F)F)O1 [EFAVIRENZ] | 133 | 6.82 | > 6.35 | 753 | 7.87 | 425 |  | 433 |  |  |  |  |  |  |
| Cc1cc(C#N)cc(C)c1Oc1nc(Nc2ccc(C#N)cc2)nc2c1CN(C(=O)c1cccc(C#N)c1)CC2 | 10.4 | 40 | > 238 |  |  |  |  |  | 161 | > 30600 | > 22800 | > 5950 | 7.77 |  |
| Cc1ccc(C(=O)N2CCc3nc(Nc4ccc(C#N)cc4)nc(Oc4c(C)cc(C#N)cc4C)c3C2)cc1 | 7.14 | 23.5 | > 243 | 94.6 | 49.7 | 50.5 | 314 | 182 | 236 | > 34300 | > 34000 | > 10300 | 7.08 | selectivity ratio [13]: > 2570; selectivity ratio [14]: > 4890; selectivity ratio [15]: > 4810; selectivity ratio [16]: > 774; selectivity ratio [17]: > 1340 |
| Cc1cc(C#N)cc(C)c1Oc1nc(Nc2ccc(C#N)cc2)nc2c1CN(C(=O)c1ccc(C(F)(F)F)cc1)CC2 | 44 | 132 | > 220 |  |  |  |  |  | 297 | > 7640 | > 5000 | > 1670 | 28.8 |  |
| COc1ccc(C(=O)N2CCc3nc(Nc4ccc(C#N)cc4)nc(Oc4c(C)cc(C#N)cc4C)c3C2)cc1 | 9.56 | 47.5 | 32.4 |  |  |  |  |  | 211 | 4800 | 3390 | 682 | 6.76 |  |
| COC(=O)c1ccc(C(=O)N2CCc3nc(Nc4ccc(C#N)cc4)nc(Oc4c(C)cc(C#N)cc4C)c3C2)cc1 | 45.8 | 274 | > 224 |  |  |  |  |  | 237 | > 10600 | > 4890 | > 817 | 21.1 |  |
| Cc1cc(/C=C/C#N)cc(C)c1Nc1ccnc(Nc2ccc(C#N)cc2)n1 [RILPIVIRINE] |  |  |  |  |  |  |  |  |  |  |  |  |  | solubility [19]: < 1 µg/mL; t1/2 [20]: 12.8 min; microsomal CLint at 1 h [21]: 108 µL/min/mg; CLint scaled [22]: 97.6 mL/min/kg; Stability [23]: 21% |
| Cc1cc(C#N)cc(C)c1Oc1nc(Nc2ccc(C#N)cc2)nc2c1CN(C(=O)c1ccc(C#N)cc1)CC2 | 16.2 | 46.8 | > 238 |  |  |  |  |  | 154 | > 23000 | > 14700 | > 5090 | 10.3 |  |
| Cc1cc(C#N)cc(C)c1Oc1nc(Nc2ccc(C#N)cc2)nc2c1CN(Cc1ccc(S(C)(=O)=O)cc1)CC2 | 8.72 | 43.3 | > 221 | 160 | 41.3 | 36.6 | 234 | 118 | 234 | > 25400 | > 25400 | > 5110 | 8.7 | selectivity ratio [13]: > 1380; selectivity ratio [14]: > 5360; selectivity ratio [15]: > 6050; selectivity ratio [16]: > 944; selectivity ratio [17]: > 1880 |
